Data taken from PubChem BioAssay (NCI).
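Cultured in 96-well plates, cells were exposed to test compound for 48 hours across five concentrations. GI50 = concentration required for 50% inhibition of growth. TGI is the concentration that stops growth completely.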

Columns and labels:
Experiment in all cases: inhibition of tumour cell growth, NCI panel, 48 h
UACC-62 melanoma = system: UACC-62 melanoma
NCI-H23 lung = system: NCI-H23 lung
SF-268 CNS = system: SF-268 CNS
MCF7 breast = system: MCF7 breast
DU-145 prostate = system: DU-145 prostate
EKVX NSCLC = system: EKVX NSCLC
KM12 colon = system: KM12 colon
SR leukemia = system: SR leukemia

Compound | GI50 (UACC-62 melanoma) [µM] | TGI (UACC-62 melanoma) [µM] | GI50 (NCI-H23 lung) [µM] | TGI (NCI-H23 lung) [µM] | GI50 (SF-268 CNS) [µM] | TGI (SF-268 CNS) [µM] | GI50 (MCF7 breast) [µM] | TGI (MCF7 breast) [µM] | GI50 (DU-145 prostate) [µM] | TGI (DU-145 prostate) [µM] | GI50 (EKVX NSCLC) [µM] | TGI (EKVX NSCLC) [µM] | GI50 (KM12 colon) [µM] | TGI (KM12 colon) [µM] | GI50 (SR leukemia) [µM] | TGI (SR leukemia) [µM]
O=C(O)c1cn(C2CC2)c2cc(N3CCN(C(=O)Nc4nc(-c5ccccc5)cs4)CC3)c(F)cc2c1=O | 0.67 | 8.52 | 0.654 | 14 | 0.474 | > 100 | 1.72 | > 100 | 1.05 | 15.8 | 3.17 | 85.2 | 0.485 | 23.7 | 0.35 | 73.8
CCOc1cc(Br)c(C(C)NC(=O)c2cccc(OC)c2)cc1OCC (stereo not drawn) | 6.61 | > 100 | 29.1 | > 100 | 22.9 | > 100 | 5.38 | > 100 | 26.4 | > 100 | – | – | 7.32 | > 100 | 3.26 | > 100
Cc1cc(S(=O)(=O)/N=C/N(C)C)c(SC(=O)c2ccc(Cl)cc2)cc1Cl | 29.9 | > 100 | 23.2 | 56.2 | 50.8 | > 100 | 37.1 | > 100 | 19.1 | > 100 | 17.4 | 51.1 | 39.1 | > 100 | 44.6 | > 100
COc1cc(OC)c2nccc(NCCCN(C)C)c2c1[N+](=O)[O-] | – | > 100 | – | > 100 | – | > 100 | – | > 100 | – | > 100 | – | – | – | > 100 | – | > 100
COc1ccc2c(c1)CC[C@@H]1[C@@H]2CC[C@]2(C)[C@@H](NC(=O)/C=C/c3ccc(O)c(O)c3)CC[C@@H]12 | 2.12 | 6.19 | 3.51 | 12.6 | 2.66 | 11 | 5.24 | > 100 | 12.6 | 30.4 | 9.98 | 24.5 | 2.28 | 5.88 | 1.51 | 4.21
Cc1cc(Nc2nc(-c3cccnc3)nc3ccccc23)n[nH]1 | 0.943 | 35.6 | 5.16 | > 100 | 2.47 | > 67.2 | 1.28 | > 100 | 10.7 | > 100 | – | – | 0.206 | 99.1 | 0.481 | > 38.5
COc1ccccc1C1=C(Nc2ccccc2)C(=O)NC1=O | > 25 | > 25 | – | – | > 25 | > 25 | > 25 | > 25 | > 25 | > 25 | > 25 | > 25 | > 23.8 | > 25 | – | –
CC(C)(C)c1ccc(OC(=O)Nc2ccc(O)c(C(=O)O)c2)cc1 | – | > 100 | – | > 100 | – | > 100 | – | > 100 | – | > 100 | – | > 100 | – | > 100 | – | > 100
COc1cccc(CSCC(=O)O)c1 | – | > 100 | – | > 100 | – | > 100 | – | > 100 | – | > 100 | – | > 100 | – | > 100 | – | –
CC(=O)N1N=C(c2ccc(Nc3ccnc4cc(Cl)ccc34)cc2)CC1c1ccc(Cl)cc1 (stereo not drawn) | 2.95 | > 100 | > 100 | > 100 | 9.1 | > 100 | 4.04 | > 100 | > 100 | > 100 | – | – | 6.59 | > 100 | 0.612 | > 100
COc1ccc(/C=c2\sc3n(c2=O)C2C(NN=3)N(C)C(=O)N2C)cc1 (stereo not drawn) | 0.578 | > 100 | 1.75 | > 100 | > 100 | > 100 | 0.384 | > 100 | 1.32 | > 100 | 1.72 | > 100 | 0.588 | > 100 | 0.316 | > 100
Clc1ccc(-c2csc(Nc3cccc(-c4csc(-c5ccccc5)n4)c3)n2)cc1 | 6.24 | 13.6 | 11.4 | 26.2 | 8.68 | 19.6 | 10.3 | > 50 | 9.15 | 17.5 | 8.36 | 17.7 | 15.7 | > 50 | 6.8 | 28.7
O=[N+]([O-])c1ccc(Oc2nc(Nc3ccc(O[C@H]4CO[C@H]5[C@@H]4OC[C@@H]5O)c(Cl)c3)ncc2F)c(Cl)c1 | 0.843 | 2.27 | 1.3 | 3.22 | 1.56 | 6.92 | 1.66 | 4.16 | 0.917 | 5.45 | 2.22 | 9.43 | 0.41 | 2.22 | 0.548 | 7.79
Nc1nc(N)c(C=Nc2ccc(Br)cc2)c(Nc2ccc(Br)cc2)n1 | 12.1 | 24.4 | 10 | 27.3 | 8.16 | 27.1 | 2.57 | 15.1 | 12.3 | 28.6 | 10.5 | 24.1 | 4.22 | 18.4 | 2.61 | 10.2
S=C(Nc1ccc(N=Nc2ccccc2)cc1)SCc1ccccc1 | – | 31.8 | – | 30.7 | – | 36.6 | – | 64.6 | – | 29.6 | – | 48.6 | – | 30.6 | – | –
CC(=O)OC1=CC2=CC[C@H]3[C@@H]4CCC(=O)[C@@]4(C)CC(=O)[C@]3(S)[C@@]2(C)CC1 | – | 93.1 | – | > 100 | – | 89.6 | – | > 100 | – | > 100 | – | > 100 | – | > 100 | – | 74.1
COc1ccc(S(=O)(=O)NC2=NCCN2C(=S)SN2CCn3c2nsc3=S)cc1 | 12.2 | 27.4 | 22.9 | 55.7 | 18 | 37.8 | 12.4 | 27.2 | 13.5 | 31.9 | 15.8 | 30.6 | 18.7 | 37.7 | 17 | > 100
FC(F)(F)c1ccc(-c2cnc(-n3cc(COCCN4CCCCC4)nn3)nc2NC2CCCCCC2)cc1 | 3.88 | 7.6 | 3.8 | 7.81 | 3.98 | 7.87 | 3.21 | 7.4 | 4.25 | 7.94 | – | – | 4.27 | 8.08 | 2.61 | 7.73
O=C(O)C1CCCCC1c1c2ccc(=O)c(O)c-2oc2c(O)c(O)ccc12 (stereo not drawn) | – | > 100 | – | – | – | > 100 | – | 37.5 | – | > 100 | – | > 100 | – | > 100 | – | > 100
O=C(O)C1CC2(C1)CC(C(=O)O)C2 (stereo not drawn) | – | > 100 | – | > 100 | – | – | – | > 100 | – | > 100 | – | > 100 | – | > 100 | – | > 100
C=C1C(=O)O[C@H]2[C@H]1CC/C(COC(=O)CCSCCC(=O)OC/C1=C/CC[C@@]3(C)O[C@H]3[C@H]3OC(=O)C(=C)[C@@H]3CC1)=C\CC[C@@]1(C)O[C@@H]21 | 1.7 | 3.61 | 1.89 | 4.2 | 1.63 | 4.54 | 0.418 | 1.86 | 1.36 | 2.71 | 1.42 | 3.39 | 1.75 | 3.52 | – | –
COc1cccc(-c2ccc3c(c2)C2CCN(Cc4ccccc4)C3C2)c1 (stereo not drawn) | 8.48 | 22 | – | – | 12.3 | 34.4 | 4.34 | 19.5 | 16.4 | 43.9 | – | – | 5.14 | 21.6 | 3.95 | 13.8
CCN1C(=O)CCCc2c1ccc(Nc1ncc(Cl)c(NC3[C@@H](C(N)=O)[C@@H]4C=C[C@H]3C4)n1)c2OC (stereo partly drawn) | 0.933 | 2.59 | 1.56 | 9.47 | 2.01 | 14.3 | 0.618 | 6.7 | 1.81 | 14.6 | – | – | 1.87 | 13.9 | 0.0556 | 19.7
COc1cccc(/C=N/NC(=S)NC2CC3CCC2C3)c1O (stereo not drawn) | 10.8 | 50.1 | 15.1 | 45.4 | 5.84 | 21.5 | 4.74 | 27.1 | 9.79 | 22.8 | – | – | 26.3 | > 100 | 3.08 | 10.8
COc1cc(-c2cc(-c3ccc(Nc4ccnc5cc(Cl)ccc45)cc3)nc(N3CCOCC3)n2)cc(OC)c1OC | 1.98 | 3.83 | 2.2 | 6.22 | 2.04 | 5.7 | 0.755 | 3.26 | – | – | 2.62 | 9.73 | – | – | 0.468 | 2.41
